Like-named read-outs stand apart in the source and are kept apart here.

In the experiment the test system is MDA 435 cells. Description: Cell growth inhibition: MTT assay, MDA 435 (ER- breast carcinoma). The experiment is classed as cell-based. The note with it: Homo sapiens, MDA435, read-out: % inhibition of cell growth compared to no drug control. Here is the method:
ER- breast carcinoma, human (MDA-435) obtained from Dr. Janet Price, MDA Cancer Center, Houston, Tex., were grown in Gibco's RPMI 1640 media supplemented with sodium pyruvate, 10% FBS and 13 ng/mL gentamicin. Cells were incubated at 37° C., 4.5% CO2 and 95.5% humidified air.
1. Cell growth inhibition: MTT Assay
The compounds of formula 1 were tested for ability to inhibit cell growth using the standard MTT assay, a tetrazolium-based assay which measures the viability of cells in culture. Cells were harvested upon reaching 70-80% confluency and pelleted. The cells were then resuspended in medium in which FBS was replaced with Hyclone's Charcoal/Dextran stripped FBS, and seeded (2 mL/well) into 6-well plates (Corning) at a density allowing for linear growth over a four day assay period. Compounds of formula 1 (10 mM stock in dimethylsulfoxide (DMSO)) were added 18-24 hours post-seeding. Compound dilutions were prepared in the appropriate growth media and added to the cells for final concentrations of 10, 3.3 and 1 μM in 0.1% DMSO. At 24, 48 and 72 hr. time points, MTT (3-[4,5-dimethylthiazol-2-yl-2,5-diphenyltetrazolium bromide) stock solution (5mg/mL in 1 PBS) was added to the cells plates (625 μL/well) which were then incubated for 2.5 hours. Liquid was aspirated from the wells and 1 mL/well of 95% ethanol was added to solubilize the formazan reaction product. The plates were shaken (Bellco Mini-Orbital Shaker) for 15 minutes. The solubilized formazan was then transferred (50 μls) into a 96-well plate and the optical densities (OD) were measured (Bio-Tek Microplate Reader) at 570 nm and reference wavelength of 660 nm. Percentage of inhibition of cell growth was calculated according to the following formula: [formula]
On the technique in general: Formazan colour is commonly taken as a measure of viable cells.

Consider `C/C(=C/C=C/C(C)=C/C(=O)Nc1ccc(O)cc1)c1cc(C(F)(F)F)cc(C(F)(F)F)c1` [N-(4-hydroxyphenyl)-(2E,4E,6Z)-7-[3,5-bis(trifluoromethyl)phenyl]-3,7-dimethyl-2,4,6-heptatrienamide], for which, where the note is “24 hours”, the inhibition at 1 µM turned out to be 47%, the inhibition at 3.3 µM is 78% and the inhibition at 10 µM was found to be 77%. Further, for the setting “48 hours”, the inhibition at 1 µM is 59%, the inhibition at 3.3 µM stood at 91% and the inhibition at 10 µM was determined as 95%. Where the note is “72 hours”, the inhibition at 1 µM was determined as 94%, the inhibition at 3.3 µM turned out to be 96% and the inhibition at 10 µM is 98%.

Broadly, the inhibition is the share of the control response that was lost under treatment.
